The supplement of paper PMC10307832

Assays:
Experiment in all cases: relative viability (nuclei count vs DMSO), 5 days (fraction); higher = more cells survive
[1] = compound: CC1=CC(=CC=C1)NC2=NC(=CS2)C3=CC=NC=C3 + Cc1nc(Nc2ncc(C(=O)Nc3c(C)cccc3Cl)s2)cc(N2CCN(CCO)CC2)n1 [Dasatinib] (partner 0.075 µM)
How it was run: (§1)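 Cells from lung cancer lines were seeded into 1536-well plates and, one day later, dosed by pin tool. Treatments were either a single drug or a fixed dose of an anchor drug with five library-drug doses (not always all listed) in √10 steps. After 5 days, nuclei were stained in a one-step fixation (final 0.05% Triton X-100, 1% formaldehyde, 1 ug/ml Hoechst) and counted on 4× images, and relative viability is the treated-to-vehicle nuclei ratio, as the median of duplicate plates.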

[2] = compound: CC1=CC(=CC=C1)NC2=NC(=CS2)C3=CC=NC=C3 + C[C@]1(O)C[C@@H](c2nc(-c3ccc4ccc(-c5ccccc5)nc4c3)c3c(N)nccn32)C1 [Linsitinib] (partner 1 µM)
How it was run: as §1

Masitinib + Lapatinib = compound: Cc1ccc(NC(=O)c2ccc(CN3CCN(C)CC3)cc2)cc1Nc1nc(-c2cccnc2)cs1 [Masitinib] + CS(=O)(=O)CCNCc1ccc(-c2ccc3ncnc(Nc4ccc(OCc5cccc(F)c5)c(Cl)c4)c3c2)o1 [Lapatinib] (partner 2 µM)
How it was run: as §1

[3] = compound: CC1=CC(=CC=C1)NC2=NC(=CS2)C3=CC=NC=C3 + Nc1nc2[nH]cc(CCc3ccc(C(=O)N[C@@H](CCC(=O)O)C(=O)O)cc3)c2c(=O)[nH]1 [Pemetrexed] (partner 0.2 µM)
How it was run: as §1

Cell Line	relative viability ([1]; first compound 0.08 µM)	relative viability ([1]; first compound 0.253 µM)	relative viability ([1]; first compound 0.8 µM)	relative viability ([1]; first compound 2.53 µM)	relative viability ([1]; first compound 8 µM)	relative viability ([2]; first compound 0.08 µM)	relative viability ([2]; first compound 0.253 µM)	relative viability ([2]; first compound 0.8 µM)	relative viability ([2]; first compound 2.53 µM)	relative viability ([2]; first compound 8 µM)	relative viability (Masitinib + Lapatinib; first compound 0.01 µM)	relative viability (Masitinib + Lapatinib; first compound 0.03162 µM)	relative viability (Masitinib + Lapatinib; first compound 0.1 µM)	relative viability (Masitinib + Lapatinib; first compound 0.3162 µM)	relative viability (Masitinib + Lapatinib; first compound 1 µM)	relative viability ([3]; first compound 0.08 µM)	relative viability ([3]; first compound 0.253 µM)	relative viability ([3]; first compound 0.8 µM)	relative viability ([3]; first compound 2.53 µM)	relative viability ([3]; first compound 8 µM)
HARA	0.194	0.269	0.399	0.281	0.278	0.919	0.877	0.735	0.712	0.789	0.582	0.78	0.855	0.675	0.719	0.267	0.22	0.203	0.255	0.276
NCI-H647	0.17	0.172	0.195	0.148	0.196	1.01	0.992	1.05	1.1	0.815	0.869	0.919	1.07	1.04	0.994	0.181	0.154	0.147	0.167	0.151
NCI-H2347	0.274	0.301		0.388	0.389	0.751	0.802	0.688	0.948	0.93	0.826	0.911	0.821	0.833	0.948	0.431	0.42	0.41	0.404	0.385
LCLC-97TM1	0.898	0.824	0.963	0.856	1.01			0.212	0.207	0.168	0.767	1.13	0.673	1.57	0.715	0.168	0.161	0.19	0.168	0.182
EPLC-272H	0.396	0.338	0.273	0.288	0.333	1.08		1.05		1.19	0.948	0.898	0.951	0.914	0.827	0.404	0.375	0.264	0.31	0.332
NCI-H1975	0.366	0.353	0.295	0.22	0.165	0.825	0.868	0.702	0.754	0.738	0.941	0.876	0.992	0.824	0.828	0.277	0.25	0.257	0.24	0.239
NCI-H3122	0.78	0.821	1.05	0.819	0.77	0.991	0.938	0.907	1	0.964	1.01	1.04	1.02	1.04	1	0.202	0.202	0.191	0.226	0.19
NCI-H358	0.214	0.173	0.182	0.185	0.263	0.733	0.798	0.639	0.8	0.666	0.465	0.479	0.492	0.494	0.421	0.153	0.19	0.175	0.176	0.166
NCI-H1395	0.364	0.372	0.402	0.397	0.404	0.999	0.949	1.01	0.932	0.903	1.37	1.16	1.39	0.982	0.81	0.757		0.921	0.596	0.728
SK-MES-1	0.276	0.256	0.327	0.279	0.235	0.878	0.933	0.81	1.04	0.874	0.473	0.426	0.518	0.386	0.45	0.757	0.762	0.787	0.822	0.862
PC-14	0.237	0.247	0.27	0.225	0.178	0.858	0.944	0.86	1.01	0.844	0.286	0.314	0.315	0.185	0.309	0.144	0.131	0.141	0.134	0.136
CAL-12T	0.423	0.321	0.332	0.299	0.245	0.766	0.801	0.747	0.847	0.847	0.612	0.729	0.745	0.592	0.499	1.19	0.94	1.15	1.05	1.07
